Experimental data as given in patent US7408060B2, “Nonsteroidal progesterone receptor modulators” (Schering AG, priority 2005, dated 2008).

Columns and labels:
[1] = molecular target: T1, Progesterone Receptor PR-B (Homo sapiens, UniProt P06401); assay: Agonism of Progesterone Receptor PR-B, transactivation assay; type: cell-based; conditions: PR-B transactivation assay as in Fuhrmann et al.
T1 construct: expressed in transfected cells; From own knowledge of the cited Fuhrmann et al. 2000: SK-N-MC cells stably transfected with PR-B and an MMTV-luciferase reporter
T1 sequence (P06401 1-933): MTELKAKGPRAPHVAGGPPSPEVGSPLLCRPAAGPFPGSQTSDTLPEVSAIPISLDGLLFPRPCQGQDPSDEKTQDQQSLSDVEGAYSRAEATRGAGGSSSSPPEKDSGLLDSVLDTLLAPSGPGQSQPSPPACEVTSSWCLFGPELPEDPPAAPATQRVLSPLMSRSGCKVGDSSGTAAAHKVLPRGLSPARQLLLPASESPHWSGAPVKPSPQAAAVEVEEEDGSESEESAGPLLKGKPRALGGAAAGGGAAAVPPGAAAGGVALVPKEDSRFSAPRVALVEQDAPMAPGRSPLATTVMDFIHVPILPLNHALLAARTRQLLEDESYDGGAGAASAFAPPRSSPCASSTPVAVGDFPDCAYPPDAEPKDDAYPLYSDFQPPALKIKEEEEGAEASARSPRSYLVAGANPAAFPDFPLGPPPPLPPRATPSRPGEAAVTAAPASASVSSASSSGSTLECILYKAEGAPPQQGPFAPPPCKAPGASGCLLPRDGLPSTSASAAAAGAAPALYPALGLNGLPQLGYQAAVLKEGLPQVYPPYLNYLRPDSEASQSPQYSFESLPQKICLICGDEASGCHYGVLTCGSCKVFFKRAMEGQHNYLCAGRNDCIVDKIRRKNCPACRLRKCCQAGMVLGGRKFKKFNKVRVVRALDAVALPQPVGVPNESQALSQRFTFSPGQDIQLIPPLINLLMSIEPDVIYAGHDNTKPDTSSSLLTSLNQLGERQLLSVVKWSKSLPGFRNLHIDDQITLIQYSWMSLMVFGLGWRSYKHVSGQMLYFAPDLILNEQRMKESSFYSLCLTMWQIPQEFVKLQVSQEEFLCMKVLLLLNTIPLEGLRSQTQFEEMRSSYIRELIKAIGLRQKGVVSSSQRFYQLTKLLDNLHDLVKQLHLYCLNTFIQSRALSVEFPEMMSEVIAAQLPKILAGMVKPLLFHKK
Method: Agonism of Progesterone Receptor PR-B
The transactivation assay is performed as described in Fuhrmann et al. (Fuhrmann, U.; Hess-Stump, H.; Cleve, A.; Neef, G.; Schwede, W.; Hoffmann, J.; Fritzemeier, K.-H., Chwalisz, K.; Journal of Medicinal Chem., 43, 26, 2000, 5010-5016).

[2] = molecular target: T1, Progesterone Receptor PR-B; assay: Antagonism of Progesterone Receptor PR-B, transactivation assay; type: cell-based; conditions: PR-B transactivation assay as in WO 02/054064; for IC50: read-out: Antagonistic activity IC50
Method: Antagonism of Progesterone Receptor PR-B
The transactivation assay is performed as described in WO 02/054064.

| Agonistic activity Efficacy [1] [%] | EC50 ([1]; read-out: Agonistic activity EC50) [nM] | Antagonistic activity Efficacy [2] [%] | IC50 [2] [nM] | Structure (SMILES) |
| --- | --- | --- | --- | --- |
| 11 | 2 | 82 | 4 | O=C1OCc2cc(NC(=O)C(O)(C#Cc3ccc(O)cc3)CC3(c4cc(C(F)(F)F)ccc4F)CC3)ccc21 (racemic) [Example 7, rac-5-{2-Hydroxy-2-[(4-hydroxyphenyl)ethinyl]-3-[1-(2-fluoro-5-trifluoromethylphenyl)-cyclopropyl]-propionylamino}phthalide] |
| 3 |  | 96 | 3 | CCCC#CC(O)(CC1(c2cc(C(F)(F)F)ccc2F)CC1)C(=O)Nc1ccc2c(c1)COC2=O (racemic) [Example 9, rac-5-{2-Hydroxy-3-[1-(2-fluoro-5-trifluoromethylphenyl)-cyclopropyl]-2-(pentin-1-yl)-propionylamino}phthalide] |
| 7 |  | 92 | 3 | O=C1OCc2cc(NC(=O)C(O)(C#CCO)CC3(c4cc(C(F)(F)F)ccc4F)CC3)ccc21 (racemic) [Example 13, rac-5-{2-Hydroxy-3-[1-(2-fluoro-5-trifluoromethylphenyl)-cyclopropyl]-2-[(3-hydroxy)propin-1-yl]-propionylamino}phthalide] |
| 2 |  | 97 | 0.4 | O=C1OCc2cc(NC(=O)C(O)(C#Cc3ccccc3)CC3(c4cc(C(F)(F)F)ccc4F)CC3)ccc21 (single isomer, unassigned; (-)) [Example 3b, (−)-5-{2-Hydroxy-3-[1-(2-fluoro-5-trifluoromethylphenyl)-cyclopropyl]-2-(phenylethinyl)-propionylamino}phthalide] |
